Columns and labels:
[1] = test system: sodium ion current in A549 cells (deglycosylated cell surface); test: Patch clamp assay, whole cell mode, on A549 cells deglycosylated with PNGase F; assay type: cell-based, human; settings: 240 nM peptide, Eh -100 mV, A549
Protocol: In whole cell mode experiments as described above, A549 cells were incubated with “PNGase enzyme F” (Peptide-N^4-(N-acetyl-β-D-glucosaminyl)asparagine amidase F) 100 units for 1-5 minutes immediately prior to the patch clamp measurements and glass cover slips with the cultured cells were rinsed with external solution before being transferred to the chamber of the 1 mL bath.
The results of the deglycosylation experiments using the patch clamp assay in whole cell mode are presented in Table IV, wherein the effect of deglycosylation of A549 cells on activation of sodium ion current by peptides of SEQ ID NO:1 to SEQ ID NO:7 is indicated. Whole cell currents were recorded at Eh=−100 mV.

[2] = Stability of aqueous solution of the cyclised compound; assay type: physicochemical
Excerpt: For administration by inhalation/spraying, e.g. in the form of an aerosol, either the aqueous solution from the first dissolution step, or the lyophilisates obtained, re-dissolved in water, is subjected to spraying (atomizing) to obtain an aerosol, e.g. by use of a nebulizer. […] The appropriate lower limit of the droplet size is dependent only from the feasibility of the droplets.

[3] = laboratory syringe, 2 to 8° C., T = 0 and T = 7 days
[4] = storage tank of a nebulizer, 25° C., T = 0 and T = 24 hours

## C[C@@H]1NC(=O)CNC(=O)[C@H](CCC(=O)O)NC(=O)[C@@H]2CCCN2C(=O)[C@H]([C@@H](C)O)NC(=O)[C@H](CCC(=O)O)NC(=O)[C@H](CCCNC(=N)N)NC(=O)[C@H](CCC(N)=O)NC(=O)CNC(=O)[C@@H](N)CSSC[C@@H](C(=O)O)NC(=O)[C@H](Cc2ccc(O)cc2)NC(=O)[C@H](Cc2c[nH]c3ccccc23)NC(=O)[C@@H]2CCCN2C(=O)[C@H](CCCCN)NC(=O)[C@H](C)NC(=O)[C@H](CCC(=O)O)NC1=O [SEQ ID NO: 1]
[1]
  Whole cell current, pre-treatment with PNGase F: 19.6 pA (n = 3)
[2]; laboratory syringe, 2 to 8° C., T = 0
  Purity (stability): 96.3%
[2]; [3]
  Amount/Content: 25 mg/mL
  Appearance of aqueous solution: Clear solution
[2]; laboratory syringe, 2 to 8° C., T = 7 days
  Purity (stability): 96.2%
[2]; storage tank of a nebulizer, 25° C., T = 0
  Purity (stability): 96.6%
[2]; [4]
  Amount/Content: 25 mg/mL
  Appearance of aqueous solution: Clear solution
[2]; storage tank of a nebulizer, 25° C., T = 24 hours
  Purity (stability): 96.5%

From patent US12004506B2, “Pharmaceutical composition comprising a cyclic peptide of formula X1-[sequence]-X2 and use for extracorporeal lung treatment” (priority 2013, dated 2024)
